Reference: PubChem BioAssay AID206 (DTP/NCI, 2004)
Several values for one entry are separate records, joined by “and”; a condition that tells them apart may be missing. Identical values can stand only once. Records with an inconclusive call do not appear.

Test system: nude mice, HT29 intrarenal xenograft, tumor weight T/C
Assay: NCI In Vivo Anticancer Drug Screen. Data for tumor model HT29;CX-1 Human Adenocarcinoma (MER+) (intrarenal inoculation) in NU/NU Swiss (nude) mice
Conditions: endpoint: mean tumor weight change, higher = larger tumour
Method in brief: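 Readout: treated/vehicle-control ratio of the measured endpoint (tumor size or survival) in transplanted-tumor mice.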

[1] = dose: 300.0 mg/kg/injection, schedule: Q04DX004 (sc), vehicle: saline
[2] = dose: 100.0 mg/kg/injection, schedule: Q01DX010 (sc), vehicle: saline with Tween-80
[3] = dose: 200.0 mg/kg/injection, schedule: Q01DX010 (sc), vehicle: saline with Tween-80
[4] = dose: 600.0 mg/kg/injection, schedule: Q04DX004 (sc), vehicle: saline with Tween-80
[5] = dose: 25.0 mg/kg/injection, schedule: Q01DX010 (sc), vehicle: saline
[6] = dose: 600.0 mg/kg/injection, schedule: Q04DX004 (sc), vehicle: Klucel (hydroxypropylcellulose) (HPC)

`COc1ccc(S(=O)(=O)N/N=C/C(=O)O)cc1` was tested, and the T/C (dose: 25.0 mg/kg/injection, schedule: Q04DX004 (sc), vehicle: saline with Tween-80) was 94 % of control, the T/C (dose: 50.0 mg/kg/injection, schedule: Q04DX004 (sc), vehicle: saline with Tween-80) was 90 % of control and 102 % of control and the T/C (dose: 100.0 mg/kg/injection, schedule: Q04DX004 (sc), vehicle: saline with Tween-80) was 59 % of control and 82 % of control.
With `C=C(C)[C@H]1Cc2c(ccc3c2O[C@@H]2COc4cc(OC)c(OC)cc4[C@@H]2C3=O)O1` the T/C (dose: 2.0 mg/kg/injection, schedule: Q01DX010 (sc), vehicle: saline with Tween-80) was 161 % of control, the T/C (dose: 4.0 mg/kg/injection, schedule: Q01DX010 (sc), vehicle: saline with Tween-80) was 29 % of control and the T/C (dose: 8.0 mg/kg/injection, schedule: Q01DX010 (sc), vehicle: saline with Tween-80) was 57 % of control.
In the case of `Cn1cnc([N+](=O)[O-])c1SCC(=O)O`, the T/C [1] is reported as 89 % of control, the T/C (dose: 600.0 mg/kg/injection, schedule: Q04DX004 (sc), vehicle: saline) is reported as 83 % of control and the T/C (dose: 1200.0 mg/kg/injection, schedule: Q04DX004 (sc), vehicle: saline) is reported as 66 % of control. The T/C (dose: 2400.0 mg/kg/injection, schedule: Q04DX004 (sc), vehicle: saline) was 77 % of control.
`C[N+](C)(C)c1cc2c(nn1)Nc1ccccc1S2` was tested, and the T/C (dose: 50.0 mg/kg/injection, schedule: Q01DX010 (sc), vehicle: Klucel (hydroxypropylcellulose) (HPC)) was 25 % of control and the T/C (dose: 100.0 mg/kg/injection, schedule: Q01DX010 (sc), vehicle: Klucel (hydroxypropylcellulose) (HPC)) was 85 % of control.
`CCCCCCCCCCCCCCCCP(=O)(OCCOCCCCCC)OCCOCCCCCC` was tested, and the T/C (dose: 37.5 mg/kg/injection, schedule: Q04DX004 (sc), vehicle: saline) was 206 % of control, the T/C (dose: 75.0 mg/kg/injection, schedule: Q04DX004 (sc), vehicle: saline) was 93 % of control and the T/C [1] was 178 % of control.
`COc1ccc(C(=O)c2no[n+]([O-])c2C(=O)c2ccc(OC)cc2)cc1` was tested, and the T/C (dose: 200.0 mg/kg/injection, schedule: Q04DX004 (sc), vehicle: saline with Tween-80) was 182 % of control, the T/C (dose: 400.0 mg/kg/injection, schedule: Q04DX004 (sc), vehicle: saline with Tween-80) was 117 % of control and the T/C (dose: 800.0 mg/kg/injection, schedule: Q04DX004 (sc), vehicle: saline with Tween-80) was 71 % of control. The T/C (dose: 1600.0 mg/kg/injection, schedule: Q04DX004 (sc), vehicle: saline with Tween-80) was 83 % of control.
With `N#CCCSC(=S)C1CCCC1=N` (stereo unspecified) the T/C (dose: 225.0 mg/kg/injection, schedule: Q04DX004 (sc), vehicle: saline with Tween-80) was 104 % of control, the T/C (dose: 450.0 mg/kg/injection, schedule: Q04DX004 (sc), vehicle: saline with Tween-80) was 106 % of control and the T/C (dose: 900.0 mg/kg/injection, schedule: Q04DX004 (sc), vehicle: saline with Tween-80) was 114 % of control. For the same compound, the T/C (dose: 1800.0 mg/kg/injection, schedule: Q04DX004 (sc), vehicle: saline with Tween-80) was 103 % of control.
For `COC1/C=C\C=C(/C)C(=O)NC2=CC(=O)C=C(C2=O)C(OC)C(C)CC(OC)C(OC)C(C)/C=C(/C)C1OC(N)=O` (stereo unspecified), the T/C (dose: 2.25 mg/kg/injection, schedule: Q04DX004 (sc), vehicle: Klucel (hydroxypropylcellulose) (HPC)) was 92 % of control and 95 % of control, the T/C (dose: 4.5 mg/kg/injection, schedule: Q04DX004 (sc), vehicle: Klucel (hydroxypropylcellulose) (HPC)) was 33 % of control and the T/C (dose: 9.0 mg/kg/injection, schedule: Q04DX004 (sc), vehicle: Klucel (hydroxypropylcellulose) (HPC)) was 4 % of control.
With `C1CN1c1nc(N2CC2)nc(N2CC2)n1` the T/C (dose: 0.25 mg/kg/injection, schedule: Q01DX010 (sc), vehicle: saline) was 213 % of control.
For `CC(=O)Nc1ccc(C(=O)C=O)cc1`, the T/C (dose: 50.0 mg/kg/injection, schedule: Q01DX010 (sc), vehicle: saline with Tween-80) was 57 % of control, the T/C [2] was 88 % of control and the T/C [3] was 68 % of control. The T/C (dose: 400.0 mg/kg/injection, schedule: Q01DX010 (sc), vehicle: saline with Tween-80) was 26 % of control and the T/C (dose: 800.0 mg/kg/injection, schedule: Q01DX010 (sc), vehicle: saline with Tween-80) was 78 % of control.
With `O=Cc1c(O)c2ccccc2[nH]c1=O` the T/C (dose: 300.0 mg/kg/injection, schedule: Q04DX004 (sc), vehicle: saline with Tween-80) was 79 % of control, the T/C [4] was 98 % of control and the T/C (dose: 1200.0 mg/kg/injection, schedule: Q04DX004 (sc), vehicle: saline with Tween-80) was 65 % of control.
For `Oc1ccccc1C=NCCC[N-]CCCN=Cc1ccccc1O.[Co]`, the T/C (dose: 25.0 mg/kg/injection, schedule: Q01DX010 (sc), vehicle: suspension in saline) was 109 % of control and the T/C (dose: 100.0 mg/kg/injection, schedule: Q01DX010 (sc), vehicle: suspension in saline) was 73 % of control and 76 % of control.
For `CCCC(=O)Oc1ccc(/C=N/NC(N)=S)nc1`, the T/C [2] was 182 % of control and the T/C [3] was 168 % of control.
In the case of `CC1(C)COCN1COC1CCCCC1`, the T/C (dose: 100.0 mg/kg/injection, schedule: Q04DX004 (sc), vehicle: saline) is reported as 34 % of control.
`COC1N(C2CC(O)C(CO)O2)C(=O)NC(=O)C1(F)Br` (stereo unspecified) was tested, and the T/C [5] was 28 % of control.
For `CC1=CC(C)(C)Nc2ccc(CSc3ccccc3)cc21`, the T/C (dose: 75.0 mg/kg/injection, schedule: Q01DX010 (sc), vehicle: saline + Tween-80 + alcohol) was 53 % of control, the T/C (dose: 150.0 mg/kg/injection, schedule: Q01DX010 (sc), vehicle: saline + Tween-80 + alcohol) was 74 % of control and the T/C (dose: 300.0 mg/kg/injection, schedule: Q01DX010 (sc), vehicle: saline + Tween-80 + alcohol) was 50 % of control. The T/C (dose: 600.0 mg/kg/injection, schedule: Q01DX010 (sc), vehicle: saline + Tween-80 + alcohol) was 66 % of control.
With `Cc1cc(O)c(N=Nc2ccc(C(=O)O)cc2)cc1C` the T/C [4] was 107 % of control and the T/C (dose: 2400.0 mg/kg/injection, schedule: Q04DX004 (sc), vehicle: saline with Tween-80) was 154 % of control.
In the case of `S=c1nc[nH]c2nc[nH]c12`, the T/C (dose: 12.5 mg/kg/injection, schedule: Q01DX010 (sc), vehicle: Klucel (hydroxypropylcellulose) (HPC)) is reported as 200 % of control and the T/C (dose: 25.0 mg/kg/injection, schedule: Q01DX010 (sc), vehicle: Klucel (hydroxypropylcellulose) (HPC)) is reported as 81 % of control.
With `CS(=O)(=O)OCCN(CCOS(C)(=O)=O)c1ccc(C=O)cc1` the T/C (dose: 12.5 mg/kg/injection, schedule: Q01DX010 (sc), vehicle: saline) was 100 % of control, the T/C [5] was 90 % of control and the T/C (dose: 50.0 mg/kg/injection, schedule: Q01DX010 (sc), vehicle: saline) was 37 % of control.
With `CN(C)C(=O)SC1=C(c2c(Cl)cccc2Cl)C(=O)c2ccccc21` the T/C (dose: 300.0 mg/kg/injection, schedule: Q04DX004 (sc), vehicle: Klucel (hydroxypropylcellulose) (HPC)) was 95 % of control and the T/C [6] was 158 % of control.
In the case of `CSCS(=O)C[C@H](CO)NC(=O)/C=C/c1c(C)[nH]c(=O)[nH]c1=O` (stereo partly specified), the T/C (dose: 0.75 mg/kg/injection, schedule: Q04DX004 (sc), vehicle: saline) is reported as 111 % of control and the T/C (dose: 1.5 mg/kg/injection, schedule: Q04DX004 (sc), vehicle: saline) is reported as 81 % of control.
`Cc1noc(N)c1N` was tested, and the T/C (dose: 100.0 mg/kg/injection, schedule: Q04DX004 (sc), vehicle: water) was 200 % of control, the T/C (dose: 400.0 mg/kg/injection, schedule: Q04DX004 (sc), vehicle: water) was 98 % of control and the T/C (dose: 800.0 mg/kg/injection, schedule: Q04DX004 (sc), vehicle: water) was 200 % of control.
In the case of `CCC12C[N+]3([O-])CCc4c([nH]c5ccccc45)C(C(=O)OC)(c4cc5c(cc4OC)N(C)C4C(O)(C(=O)OC)C(OC(C)=O)C6(CC)C=CCN7CCC54C76)CC(C3)C1O2` (stereo unspecified), the T/C (dose: 20.0 mg/kg/injection, schedule: Q04DX004 (sc), vehicle: water) is reported as 81 % of control, the T/C (dose: 40.0 mg/kg/injection, schedule: Q04DX004 (sc), vehicle: water) is reported as 60 % of control and the T/C (dose: 80.0 mg/kg/injection, schedule: Q04DX004 (sc), vehicle: water) is reported as 85 % of control. For the same compound, the T/C (dose: 160.0 mg/kg/injection, schedule: Q04DX004 (sc), vehicle: water) was 71 % of control.
In the case of `NC(=O)CC(N)C(=O)O` (stereo unspecified), the T/C (dose: 400.0 mg/kg/injection, schedule: Q04DX004 (sc), vehicle: saline) is reported as 151 % of control, the T/C (dose: 800.0 mg/kg/injection, schedule: Q04DX004 (sc), vehicle: saline) is reported as 119 % of control and the T/C (dose: 3200.0 mg/kg/injection, schedule: Q04DX004 (sc), vehicle: saline) is reported as 90 % of control.
In the case of `OC1CCCC2CCC[N-]C12.OC1CCCC2CCC[N-]C12.[Mn+2]` (stereo unspecified), the T/C (dose: 150.0 mg/kg/injection, schedule: Q04DX004 (sc), vehicle: Klucel (hydroxypropylcellulose) (HPC)) is reported as 114 % of control and the T/C [6] is reported as 124 % of control.
In the case of `C=C(OP(=O)(OC)OC)Sc1ccccc1C`, the T/C (dose: 100.0 micrograms/kg/injection, schedule: Q04DX004 (sc), vehicle: Klucel (hydroxypropylcellulose) (HPC)) is reported as 84 % of control, the T/C (dose: 400.0 micrograms/kg/injection, schedule: Q04DX004 (sc), vehicle: Klucel (hydroxypropylcellulose) (HPC)) is reported as 95 % of control and the T/C (dose: 800.0 micrograms/kg/injection, schedule: Q04DX004 (sc), vehicle: Klucel (hydroxypropylcellulose) (HPC)) is reported as 118 % of control.
